Experimental data as given in patent US10787444B2, “Compounds for the modulation of myc activity” (Syros Pharmaceuticals, Inc., priority 2015, dated 2020).
Structures can show the parent of a compound that is named as a salt. Where two headings read alike, the source gives them in different places.

How the values were obtained:
c-Myc/Max/Ebox DNA = molecular target: T1, c-Myc/Max/Ebox DNA (Homo sapiens, UniProt P01106); assay: c-Myc/Max/Ebox DNA AlphaScreen Assay; type: binding; conditions: calculated IC50 class
T1 construct: his6 (cleaved yes)
Experimental: Compounds of the invention were assayed for c-Myc/Max/EBox activity as described in the following protocol. Human his6-c-Myc and his6-Max were used with biotinylated DNA containing a single Ebox sequence (biotin[…]) purchased from MWG Operon. Free c-Myc was generated from his6-c-Myc through thrombin cleavage of the his6 tag. For 384-well plate assays, 10 μL of a 2× solution of free c-Myc (20 nM final), Ni^2+ coated Acceptor Beads (25 μg/ml final), and biotinylated Ebox oligo (10 nM final) were added to 384-well plates with a Biotek EL406 liquid handler. 50 nL of compounds from stock plates were added by pin transfer using a Janus Workstation (PerkinElmer), allowing the compounds to interact with c-Myc prior to c-Myc binding with Max. In the current assay, DMSO was not allowed to exceed 2% v/v of the assay. 10 μl of 2× master mix containing streptavidin-coated donor beads (25 μg/ml final) and his6-Max (5 nM) were added. AlphaScreen measurements were performed on an Envision plate reader (PerkinElmer) utilizing the manufacturer's protocol.
Both master mixes were made in room temperature assay buffer (50 mM HEPES, 150 mM NaCl, 0.2% w/v BSA, 0.02% w/v Tween20, 40 μg/ml glycogen, 500 μM DTT, pH 8.0, wherein both DTT and glycogen were added fresh). Alpha beads were added to respective master solutions. All subsequent steps were performed in low light conditions. Solution 1:2× solution of components with final concentrations of c-Myc Ni-coated Acceptor Beads (25 μg/ml), and biotinylated Ebox oligo (10 nM). Solution 2:2× solution of streptavidin-coated donor beads (25 μg/ml final) and his6-Max 10 μL. […] 50 nL of compounds from stock plates were added by pin transfer using a Janus Workstation. Solution 2 (10 μl) was added with the liquid handler. Plates were sealed with foil to block light exposure and prevent evaporation. Plates were very briefly centrifuged followed by 2 hour incubation. […] Excitation was at 680 nm for donor bead release of singlet oxygen and emission was read with a bandpass filter from 520-620 nm.

[1] = tested on: human small lung cancer cell line H2171; assay: Cell Viability Assay (ATPlite); type: cell-based; conditions: Table 2, compounds of FIG. 1, H2171 cells, three days, ATPlite, calculated IC50 class, read-out: H2171 Activity
Experimental: Compounds of the invention were assayed for cell viability using the human small lung cancer cell line H2171 as described in the following protocol. Cells were counted and adjusted to 20,000 cells/mL. Using a Biotek EL406, 50 μL of cells in media were distributed into 384 well white plates from Thermo. Immediately after plating, compound in DMSO was distributed to plates. Compounds were added to plates using a 50 nL 384 well pin transfer manifold on a Janus workstation. Stocks were arrayed in 10 point dose response in DMSO stock in 384 well Greiner compound plates. After the addition of compounds, plates were incubated for three days in a 37° C. incubator. Cell viability was read out using ATPlite from Perkin Elmer. Lyophilized powder was resuspended in lysis buffer and diluted 1:2 with deionized water. 25 μL of this solution was added to each well using the Biotek liquid handler. Plates were incubated for 15 minutes at room temperature before signal was read on an Envision Plate Reader. The data from this assay are summarized in Tables 2 and 3 below (H2171 activity).

T1 sequence (P01106 whole entry): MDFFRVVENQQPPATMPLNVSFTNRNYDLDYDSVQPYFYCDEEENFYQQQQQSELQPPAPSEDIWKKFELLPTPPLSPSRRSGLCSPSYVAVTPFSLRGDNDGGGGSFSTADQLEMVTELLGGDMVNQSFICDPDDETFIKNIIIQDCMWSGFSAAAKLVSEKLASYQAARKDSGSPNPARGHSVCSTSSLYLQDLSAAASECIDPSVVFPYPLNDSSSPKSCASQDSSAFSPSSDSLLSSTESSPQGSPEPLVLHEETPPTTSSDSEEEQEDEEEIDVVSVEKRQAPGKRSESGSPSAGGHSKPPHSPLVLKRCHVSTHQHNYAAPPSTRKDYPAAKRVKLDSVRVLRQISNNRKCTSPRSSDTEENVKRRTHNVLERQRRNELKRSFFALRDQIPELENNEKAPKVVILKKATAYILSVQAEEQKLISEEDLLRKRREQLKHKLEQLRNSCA

## CC(=O)Nc1sc2c(c1-c1nc3ccccc3s1)[C@@H](C)CN(C(C)C)C2 [Compound 208, (R)—N-(3-(benzo[d]thiazol-2-yl)-6-isopropyl-4-methyl-4,5,6,7-tetrahydrothieno[2,3-c]pyridin-2-yl)acetamide]
c-Myc/Max/Ebox DNA; Table 3, compounds of FIG. 2
  IC50: 1000 to 10000 nM

## CCN1[C@H](C)Cc2c(sc(NC(C)=O)c2-c2nc3ccccc3s2)[C@@H]1C [Compound 211, N-(3-(benzo[d]thiazol-2-yl)-6-ethyl-5,7-dimethyl-4,5,6,7-tetrahydrothieno[2,3-c]pyridin-2-yl)acetamide]
c-Myc/Max/Ebox DNA; Table 3, compounds of FIG. 2
  IC50: 1000 to 10000 nM

## CCC(C)NCCC(=O)Nc1sc2c(c1-c1nc3cc(I)ccc3s1)CCN(C(C)C)C2 (stereo not drawn) [Compound 162, 3-(sec-butylamino)-N-(3-(5-iodobenzo[d]thiazol-2-yl)-6-isopropyl-4,5,6,7-tetrahydrothieno[2,3-c]pyridin-2-yl)propanamide dihydrochloride]
[1]; Homo sapiens, NCI-H2171, 72 h
  IC50: 1000 to 10000 nM

## O=C(CCNCc1cn[nH]c1)Nc1sc2c(c1-c1nc3ccccc3s1)CCNC2 [Compound 167, 3-(((1H-pyrazol-4-yl)methyl)amino)-N-(3-(benzo[d]thiazol-2-yl)-4,5,6,7-tetrahydrothieno[2,3-c]pyridin-2-yl)propanamide]
c-Myc/Max/Ebox DNA; Table 2, compounds of FIG. 1
  IC50: < 300 nM

## Cn1cc(CNCCC(=O)Nc2sc3c(c2-c2nc4ccccc4s2)CCNC3)cn1 [Compound 143, N-(3-(benzo[d]thiazol-2-yl)-4,5,6,7-tetrahydrothieno[2,3-c]pyridin-2-yl)-3-(((1-methyl-1H-pyrazol-4-yl)methyl)amino)propanamide]
[1]; Homo sapiens, NCI-H2171, 72 h
  IC50: < 300 nM

## CCC(C)NCCC(=O)Nc1sc2c(c1-c1nc3cc(Br)ccc3s1)CCNC2 (stereo not drawn) [Compound 139, N-(3-(5-bromobenzo[d]thiazol-2-yl)-4,5,6,7-tetrahydrothieno[2,3-c]pyridin-2-yl)-3-(sec-butylamino)propanamide]
c-Myc/Max/Ebox DNA; Table 2, compounds of FIG. 1
  IC50: < 300 nM

## CC(C)N1CCc2c(sc(NC(=O)CCNCCCOCCOCCOCCCN)c2-c2nc3ccccc3s2)C1 [Compound 120, 1-amino-N-(3-(benzo[d]thiazol-2-yl)-6-isopropyl-4,5,6,7-tetrahydrothieno[2,3-c]pyridin-2-yl)-4,7,10-trioxa-14-azaheptadecan-17-amide]
c-Myc/Max/Ebox DNA; Table 2, compounds of FIG. 1
  IC50: < 300 nM

## COCCNCCC(=O)Nc1sc2c(c1-c1nc3ccc(-c4ccncc4)cc3s1)CC(C)NC2C (single isomer, unassigned) [Compound 518, N-(5,7-Dimethyl-3-(6-(pyridin-4-yl)benzo[d]thiazol-2-yl)-4,5,6,7-tetrahydrothieno[2,3-c]pyridin-2-yl)-3-((2-methoxyethyl)amino)propanamide]
c-Myc/Max/Ebox DNA; Table 2, compounds of FIG. 1
  IC50: 1000 to 10000 nM

## CC(=O)Nc1sc2c(c1-c1nc3ccccc3s1)CCC(NC(C)=O)C2 (stereo not drawn) [Compound 222, N,N′-(3-(benzo[d]thiazol-2-yl)-4,5,6,7-tetrahydrobenzo[b]thiophene-2,6-diyl)diacetamide]
c-Myc/Max/Ebox DNA; Table 3, compounds of FIG. 2
  IC50: > 10000 nM

## CC(=O)Nc1sc2c(c1-c1nc3ccccc3s1)[C@H](C)CN(C(C)C)C2 [Compound 207, (S)—N-(3-(benzo[d]thiazol-2-yl)-6-isopropyl-4-methyl-4,5,6,7-tetrahydrothieno[2,3-c]pyridin-2-yl)acetamide]
c-Myc/Max/Ebox DNA; Table 3, compounds of FIG. 2
  IC50: 1000 to 10000 nM

## CC(=O)Nc1sc2c(c1-c1nc3ccccc3s1)CC(C(F)(F)F)NC2 (stereo not drawn) [Compound 215, N-(3-(benzo[d]thiazol-2-yl)-5-(trifluoromethyl)-4,5,6,7-tetrahydrothieno[2,3-c]pyridin-2-yl)acetamide]
c-Myc/Max/Ebox DNA; Table 3, compounds of FIG. 2
  IC50: > 10000 nM

## CC(=O)Nc1sc2c(c1-c1nc3ccccc3s1)CCNC2C(F)(F)F (stereo not drawn) [Compound 214, N-(3-(benzo[d]thiazol-2-yl)-7-(trifluoromethyl)-4,5,6,7-tetrahydrothieno[2,3-c]pyridin-2-yl)acetamide]
c-Myc/Max/Ebox DNA; Table 3, compounds of FIG. 2
  IC50: > 10000 nM

## CCC(C)NCCC(=O)Nc1sc2c(c1-c1nc3ccccc3s1)CCNC2 (stereo not drawn) [Compound 607, N-(3-(benzo[d]thiazol-2-yl)-4,5,6,7-tetrahydrothieno[2,3-c]pyridin-2-yl)-3-(sec-butylamino)propanamide]
[1]
  IC50: < 300 nM

## N-((5S,7R)-5,7-dimethyl-3-(5-(pyridin-4-yl)benzo[d]thiazol-2-yl)-4,5,6,7-tetrahydrothieno[2,3-c]pyridin-2-yl)-3-((2-methoxyethyl)amino)propanamide [Compound 532]
c-Myc/Max/Ebox DNA; Table 2, compounds of FIG. 1
  IC50: 1000 to 10000 nM

## CC(=O)Nc1sc2c(c1-c1nc3ccccc3s1)CCN(C(C)C)C2C (stereo not drawn) [Compound 216, N-(3-(benzo[d]thiazol-2-yl)-6-isopropyl-7-methyl-4,5,6,7-tetrahydrothieno[2,3-c]pyridin-2-yl)acetamide]
c-Myc/Max/Ebox DNA; Table 3, compounds of FIG. 2
  IC50: > 10000 nM

## CC(=O)Nc1sc2c(c1-c1nc3ccccc3s1)CCC(NC1CCN(C(=O)OC(C)(C)C)CC1)C2 (stereo not drawn) [Compound 228, tert-butyl 4-((2-acetamido-3-(benzo[d]thiazol-2-yl)-4,5,6,7-tetrahydrobenzo[b]thiophen-6-yl)amino)piperidine-1-carboxylate]
c-Myc/Max/Ebox DNA; Table 3, compounds of FIG. 2
  IC50: > 10000 nM

## COCCNCCC(=O)Nc1sc2c(c1-c1nc3ccccc3s1)C[C@H](C)NC2 [Compound 538, (S)—N-(3-(Benzo[d]thiazol-2-yl)-5-methyl-4,5,6,7-tetrahydrothieno[2,3-c]pyridin-2-yl)-3-((2-methoxyethyl)amino)propanamide]
c-Myc/Max/Ebox DNA; Table 2, compounds of FIG. 1
  IC50: 300 to 1000 nM

## CC(C)N1CCc2c(sc(NC(=O)CCNCCc3ccccc3Cl)c2-c2nc3ccccc3s2)C1 [Compound 109, N-(3-(benzo[d]thiazol-2-yl)-6-isopropyl-4,5,6,7-tetrahydrothieno[2,3-c]pyridin-2-yl)-3-((2-chlorophenethyl)amino)propanamide]
c-Myc/Max/Ebox DNA; Table 2, compounds of FIG. 1
  IC50: > 10000 nM

## CC(=O)Nc1sc2c(c1-c1nc3ccccc3s1)CC(C)NC2 (stereo not drawn) [Compound 209, N-(3-(benzo[d]thiazol-2-yl)-5-methyl-4,5,6,7-tetrahydrothieno[2,3-c]pyridin-2-yl)acetamide]
c-Myc/Max/Ebox DNA; Table 3, compounds of FIG. 2
  IC50: 1000 to 10000 nM

## O=C(O)CNCCC(=O)Nc1sc2c(c1-c1nc3ccccc3s1)CCNC2 [Compound 166, (3-((3-(benzo[d]thiazol-2-yl)-4,5,6,7-tetrahydrothieno[2,3-c]pyridin-2-yl)amino)-3-oxopropyl)glycine]
c-Myc/Max/Ebox DNA; Table 2, compounds of FIG. 1
  IC50: 300 to 1000 nM

## CC(=O)Nc1sc2c(c1-c1nc3ccccc3s1)C(C)CCNC2 (stereo not drawn) [Compound 212, N-(3-(benzo[d]thiazol-2-yl)-4-methyl-5,6,7,8-tetrahydro-4H-thieno[2,3-c]azepin-2-yl)acetamide]
c-Myc/Max/Ebox DNA; Table 3, compounds of FIG. 2
  IC50: > 10000 nM

## N-(3-(Benzo[d]thiazol-2-yl)-6-isopropyl-4,5,6,7-tetrahydrothieno[2,3-c]pyridin-2-yl)-3-(isobutylamino)propanamide [Compound 552]
c-Myc/Max/Ebox DNA; Table 2, compounds of FIG. 1
  IC50: > 10000 nM

## CCOC(=O)CNCCC(=O)Nc1sc2c(c1-c1nc3ccccc3s1)CCN(C(C)C)C2 [Compound 138, Ethyl (3-((3-(benzo[d]thiazol-2-yl)-6-isopropyl-4,5,6,7-tetrahydrothieno[2,3-c]pyridin-2-yl)amino)-3-oxopropyl)glycinate]
c-Myc/Max/Ebox DNA; Table 2, compounds of FIG. 1
  IC50: 300 to 1000 nM

## CC(=O)Nc1sc2c(c1-c1nc3ccccc3s1)C(C)CCN(C(C)C)C2 (stereo not drawn) [Compound 213, N-(3-(benzo[d]thiazol-2-yl)-7-isopropyl-4-methyl-5,6,7,8-tetrahydro-4H-thieno[2,3-c]azepin-2-yl)acetamide]
c-Myc/Max/Ebox DNA; Table 3, compounds of FIG. 2
  IC50: > 10000 nM

## CC(=O)Nc1sc2c(c1-c1nc3ccccc3s1)CCNC2C (stereo not drawn) [Compound 210, N-(3-(benzo[d]thiazol-2-yl)-7-methyl-4,5,6,7-tetrahydrothieno[2,3-c]pyridin-2-yl)acetamide]
c-Myc/Max/Ebox DNA; Table 3, compounds of FIG. 2
  IC50: 1000 to 10000 nM

## CC(C)N1CCc2c(sc(NC(=O)CCNCC(=O)O)c2-c2nc3ccccc3s2)C1 [Compound 168, (3-((3-(benzo[d]thiazol-2-yl)-6-isopropyl-4,5,6,7-tetrahydrothieno[2,3-c]pyridin-2-yl)amino)-3-oxopropyl)glycine]
c-Myc/Max/Ebox DNA; Table 2, compounds of FIG. 1
  IC50: 300 to 1000 nM

## Cc1cccc2oc(-c3c(NC(=O)CCNC(C)C)sc4c3CCNC4)nc12 [Compound 311, 3-(Isopropylamino)-N-(3-(4-methylbenzo[d]oxazol-2-yl)-4,5,6,7-tetrahydrothieno[2,3-c]pyridin-2-yl)propanamide dihydrochloride]
c-Myc/Max/Ebox DNA; Table 2, compounds of FIG. 1
  IC50: 300 to 1000 nM
